# Measurements: patent US5147875A, “2-(substituted phenyl)-4-oxo-quinazolines” (Sanshin Kogyo Kabishiki Kaisha, priority 1988, dated 1992)
# System: U46619-induced broncho-constriction
# Experiment: Bronchodilatation in vivo: U46619-induced bronchoconstriction in anaesthetised guinea-pigs
# Parameters: species or system guinea-pig
# Settings: 10 μmol/kg i.v. bolus; anaesthetised male Dunkin Hartley guinea-pigs; U46619 infused i.v. 2.5 nmol/min
# Protocol: Male guinea-pigs of the Dunkin Hartley strain (500-600 g) were anaesthetised with Sagatal (pentobarbital sodium) (60 mg/kg). Airway resistance was measured using a modification of the classical Konzett-Rossler technique (Versuchsanordnung zu Untersuchungen an der Bronchialmuskulatur. Naunyn-Schmiedebergs Arch. Exp. Path. Pharmak., vol 195: pp 71-74, (1940)). U46619 (9,11-methanoepoxy-PGH2) was infused i.v. at a rate of 2.5 nmol/min, this produced a steady state of broncho-constriction (approximately 120% increase from basal airway resistance). The compound under test was administered by i.v. bolus injection, and the subsequent peak inhibition of bronchoconstriction recorded.
# Administration of the compound of Example 1 (10 μmol/kg) reduced the U46619-induced broncho-constriction by 34%.
row,Structure (SMILES),reduction of U46619-induced broncho-constriction (peak inhibition)
1,"CCCOc1ccccc1-c1nc2ccccc2c(=O)[nH]1 [Example 1, 2-(2-Propoxyphenyl)quinazolin-4(3H)-one]",34%

# Target: calmodulin insensitive cyclic GMP phosphodiesterase
# Experiment: Phosphodiesterase activity: inhibition of calmodulin insensitive cyclic GMP phosphodiesterase
# Format: biochemical
# Settings: procedure of European Patent Application No. 293063; read-out: IC50 (concentration of inhibitor required for 50% inhibition of enzyme activity)
# Protocol: The activity of the compounds of the present invention as inhibitors of a calmodulin insensitive cyclic GMP phosphodiesterase was measured using the procedure described in European Patent Application No. 293063. […] The compounds of the present invention have the advantage that they are selective in not inhibiting cyclic AMP phosphodiesterase (type III).
row,Structure (SMILES),IC50
1,"CCCOc1ccccc1-c1nc2ccccc2c(=O)[nH]1 [Example 1, 2-(2-Propoxyphenyl)quinazolin-4(3H)-one]",0.71 to 5.3 µM
2,"CCCOc1ccccc1-c1nc2cc([N+](=O)[O-])ccc2c(=O)[nH]1 [Example 3, 7-Nitro-2-(2-Propoxyphenyl)-4(3H)-quinazolinone]",0.71 to 5.3 µM

# Second part, the molecule after the results:
row,IC50,Structure (SMILES)
1,0.71 to 5.3 µM,"CCCOc1ccccc1-c1nc2cc(SC)ccc2c(=O)[nH]1 [Example 2, 7-Methylthio-2-(2-propoxyphenyl)quinazolin-4(3H)-one]"
2,0.71 to 5.3 µM,"CCCOc1ccccc1-c1nc2cc(N)ccc2c(=O)[nH]1 [Example 4, 7-Amino-2-(2-Propoxyphenyl)-4(3H)-quinazolinone]"
3,0.71 to 5.3 µM,"CCCOc1ccccc1-c1nc2cc(NC)ccc2c(=O)[nH]1 [Example 5, 7-Methylamino-2-(2-Propoxyphenyl)-4(3H)-quinazolinone]"
